Data as given in patent US11470844B2, “Vespidae wasp repellent” (KINP CO., LTD, priority 2015, dated 2022).

Key:
Vespa mandarinia worker = experiment: Spray on Vespa mandarinia worker collecting sawthorn oak sap; format: in vivo, Vespa mandarinia japonica Radoszkowski; settings: 10 workers; for behavior of workers after spraying: immediately started flapping, same time or a few seconds later; for Number of worker Effective / Number of worker No response: sprayed one time, observed up to 1 minute
Experimental: The experiment was conducted on a Vespa mandarinia japonica Radoszkowski worker which flew to a sawthorn oak tree bleeding sap and which collected the sap in Kagawa Prefecture Kinbuchi Forest Park in Takamatsu City Kagawa Prefecture from June to October, 2014 and from June to July, 2015.
Specifically, 100 mL of distilled water was enclosed in a plastic sprayer having a volume of 200 mL to be used as a control sprayer, and 100 mL of benzyl alcohol was enclosed in the same material and the same volume sprayer to be used as a test liquid sprayer. First, distilled water was sprayed one time to one Vespa mandarinia worker which was collecting sap at a sap bleeding part of a trunk of a sawthorn oak tree by using a control sprayer. […] Then, benzyl alcohol was sprayed one time by using a test liquid sprayer. Next, the workers were observed up to 1 minute. With respect to 2-phenylethanol, 3-phenylpropanol, 1-phenyl-2-prpanol and benzyl acetate, the spray test to a Vespa mandarinia worker collecting a sawthorn oak sap was conducted in the same condition.

Apis mellifera worker = settings: in vivo
Experimental: The experiment involving a Apis mellifera worker which was sucking nectar from a flower of Abelia planted at a bank of Noda pond located at Fuseishi-cho, Takamatsu City, Kagawa Prefecture was conducted on Jul. 22 to 24, 2015.
With respect to the experimental condition, first, distilled water was sprayed once on the worker which was sucking nectar or moving from a flower to a flower by using a sprayer, and then the inventors observed the behavior for 30 seconds. Next, benzyl alcohol, 2-phenylethanol or benzyl acetate was sprayed once on the same worker by using the sprayer having the same mass and the same volume, and then the inventors observed the behavior up to 30 seconds. The test liquid was judged to be “effective” in the case where the Apis mellifera worker on which the test liquid was sprayed did different action than normal activity to visit a flower during the observation time.

Row | SMILES | behavior of workers after spraying (Vespa mandarinia worker) | Number of worker Effective (Vespa mandarinia worker) | Number of worker No response (Vespa mandarinia worker) | Number of worker Effective (Apis mellifera worker) | Number of worker No response (Apis mellifera worker)
1 | CC(O)Cc1ccccc1 (centres unmarked) [1-Phenyl-2-propanol, 1-phenyl-2-propanol] | flew away from the sap bleeding part | 10/10 | 0/10 | – | –
2 | OCCCc1ccccc1 [3-Phenylpropanol, 3-phenylpropanol] | flew away from the sap bleeding part | 10/10 | 0/10 | – | –
3 | CC(=O)OCc1ccccc1 [Benzyl acetate, benzyl acetate] | flew away from the sap bleeding part | 10/10 | 0/10 | 0/10 | 10/10
